The target in one test is T1, Caspase-3 (Homo sapiens, UniProt P42574).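 Also: Dose-response selectivity test against caspase-3 for candidate inhibitors of sentrin-specific proteases (SENPs).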
T1 sequence (P42574 whole entry): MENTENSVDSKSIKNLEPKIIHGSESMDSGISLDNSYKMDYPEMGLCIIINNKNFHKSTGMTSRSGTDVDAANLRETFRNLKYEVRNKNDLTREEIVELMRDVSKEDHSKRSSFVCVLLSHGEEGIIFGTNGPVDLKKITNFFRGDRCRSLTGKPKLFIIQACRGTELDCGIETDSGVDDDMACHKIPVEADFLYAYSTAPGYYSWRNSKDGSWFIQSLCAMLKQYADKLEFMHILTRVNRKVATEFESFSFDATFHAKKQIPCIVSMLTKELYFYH
It counts as functional.

For test [1], the target named is T2, Sentrin-specific protease 7 (Homo sapiens, UniProt Q9BQF6).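 Also: Luminescence-based dose-response confirmation of ultra-high-throughput screening hits, measuring inhibition of SENP7.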
T2 sequence (Q9BQF6 whole entry): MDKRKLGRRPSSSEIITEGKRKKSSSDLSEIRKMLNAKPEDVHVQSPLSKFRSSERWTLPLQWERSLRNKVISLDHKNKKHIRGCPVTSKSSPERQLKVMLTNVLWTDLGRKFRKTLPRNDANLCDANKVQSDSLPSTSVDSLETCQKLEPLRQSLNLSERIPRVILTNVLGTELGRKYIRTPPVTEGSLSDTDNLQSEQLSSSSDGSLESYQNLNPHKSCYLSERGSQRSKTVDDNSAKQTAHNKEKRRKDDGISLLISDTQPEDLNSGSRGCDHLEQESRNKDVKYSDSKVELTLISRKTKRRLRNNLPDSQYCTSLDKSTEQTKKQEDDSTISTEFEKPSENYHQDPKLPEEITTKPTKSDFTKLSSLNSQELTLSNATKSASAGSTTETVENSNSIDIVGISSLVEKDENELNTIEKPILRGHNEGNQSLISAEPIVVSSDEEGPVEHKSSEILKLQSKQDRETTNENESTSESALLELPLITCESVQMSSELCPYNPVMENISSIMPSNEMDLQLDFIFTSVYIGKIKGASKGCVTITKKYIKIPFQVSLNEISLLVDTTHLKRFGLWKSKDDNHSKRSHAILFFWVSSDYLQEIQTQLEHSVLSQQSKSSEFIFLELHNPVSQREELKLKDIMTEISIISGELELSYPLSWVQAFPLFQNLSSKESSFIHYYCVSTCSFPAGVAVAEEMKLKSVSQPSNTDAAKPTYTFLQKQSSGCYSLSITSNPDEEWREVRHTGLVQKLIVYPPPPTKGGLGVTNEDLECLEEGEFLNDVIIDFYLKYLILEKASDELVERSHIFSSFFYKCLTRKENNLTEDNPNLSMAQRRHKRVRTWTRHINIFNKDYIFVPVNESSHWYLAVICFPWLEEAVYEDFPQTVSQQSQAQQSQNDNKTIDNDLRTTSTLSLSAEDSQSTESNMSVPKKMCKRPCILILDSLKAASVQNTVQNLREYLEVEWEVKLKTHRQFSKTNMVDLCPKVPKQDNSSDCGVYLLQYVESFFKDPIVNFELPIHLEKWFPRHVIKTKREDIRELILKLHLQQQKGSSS
It counts as functional.

The target in test [2] is T3, Sentrin-specific protease 6 (Homo sapiens, UniProt Q9GZR1).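 Also: Luminescence-based dose-response confirmatory assay of SENP6 inhibition, following up an ultra-high-throughput screen.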
T3 sequence (Q9GZR1 whole entry): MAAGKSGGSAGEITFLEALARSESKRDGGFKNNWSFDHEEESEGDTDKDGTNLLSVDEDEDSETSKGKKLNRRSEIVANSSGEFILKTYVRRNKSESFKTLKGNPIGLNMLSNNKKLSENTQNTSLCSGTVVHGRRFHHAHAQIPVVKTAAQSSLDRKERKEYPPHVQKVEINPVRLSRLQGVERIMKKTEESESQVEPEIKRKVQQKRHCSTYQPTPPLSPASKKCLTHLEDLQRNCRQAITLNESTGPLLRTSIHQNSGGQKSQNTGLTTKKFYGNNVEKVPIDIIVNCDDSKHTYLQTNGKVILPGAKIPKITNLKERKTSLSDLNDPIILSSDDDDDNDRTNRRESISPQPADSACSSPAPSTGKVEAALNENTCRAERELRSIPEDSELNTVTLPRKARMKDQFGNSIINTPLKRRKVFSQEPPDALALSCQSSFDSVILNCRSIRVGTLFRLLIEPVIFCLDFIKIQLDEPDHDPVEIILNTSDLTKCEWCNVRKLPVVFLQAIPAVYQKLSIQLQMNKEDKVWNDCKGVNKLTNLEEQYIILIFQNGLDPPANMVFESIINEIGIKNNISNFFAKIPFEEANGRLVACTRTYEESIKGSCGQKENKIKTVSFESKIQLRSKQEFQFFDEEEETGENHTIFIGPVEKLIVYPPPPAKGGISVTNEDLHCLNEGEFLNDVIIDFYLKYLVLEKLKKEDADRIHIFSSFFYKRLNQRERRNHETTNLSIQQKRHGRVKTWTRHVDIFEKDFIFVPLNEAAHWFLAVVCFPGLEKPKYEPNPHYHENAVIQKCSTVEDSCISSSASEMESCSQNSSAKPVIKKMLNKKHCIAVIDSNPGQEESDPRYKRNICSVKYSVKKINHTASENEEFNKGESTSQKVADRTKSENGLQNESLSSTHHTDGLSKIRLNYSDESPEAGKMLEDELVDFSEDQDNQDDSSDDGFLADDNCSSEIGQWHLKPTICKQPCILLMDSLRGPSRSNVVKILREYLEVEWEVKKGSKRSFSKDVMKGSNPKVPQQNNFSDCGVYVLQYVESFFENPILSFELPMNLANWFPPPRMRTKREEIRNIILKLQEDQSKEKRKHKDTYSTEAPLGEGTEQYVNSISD
It counts as functional.

The target of test [3] is T4, Sentrin-specific protease 8 (Homo sapiens, UniProt Q96LD8).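 Also: luminescence read-out of SENP8 inhibition, dose-response confirmation following an ultra-high-throughput screen.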
T4 sequence (Q96LD8 whole entry): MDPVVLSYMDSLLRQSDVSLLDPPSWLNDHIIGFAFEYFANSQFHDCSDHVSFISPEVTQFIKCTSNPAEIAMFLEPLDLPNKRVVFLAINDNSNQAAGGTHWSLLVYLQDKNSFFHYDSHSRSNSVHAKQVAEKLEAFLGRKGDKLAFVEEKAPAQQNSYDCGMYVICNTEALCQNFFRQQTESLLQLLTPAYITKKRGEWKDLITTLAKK
It counts as functional.

For test [4], the target named is T5, Polyadenylate-binding protein 1 (Homo sapiens, UniProt P11940). As to the kind of experiment: MLLE binding blockers, Cy5 peptide tracer – biochemical, fluorescence polarization, Cy5-PAM2 peptide, secondary, miRNA deadenylation inhibitor project, dose response (AID 602260). It counts as functional. To be noted: read-out: IC50_Mean.
T5 sequence (P11940 whole entry, the tested form may be a part): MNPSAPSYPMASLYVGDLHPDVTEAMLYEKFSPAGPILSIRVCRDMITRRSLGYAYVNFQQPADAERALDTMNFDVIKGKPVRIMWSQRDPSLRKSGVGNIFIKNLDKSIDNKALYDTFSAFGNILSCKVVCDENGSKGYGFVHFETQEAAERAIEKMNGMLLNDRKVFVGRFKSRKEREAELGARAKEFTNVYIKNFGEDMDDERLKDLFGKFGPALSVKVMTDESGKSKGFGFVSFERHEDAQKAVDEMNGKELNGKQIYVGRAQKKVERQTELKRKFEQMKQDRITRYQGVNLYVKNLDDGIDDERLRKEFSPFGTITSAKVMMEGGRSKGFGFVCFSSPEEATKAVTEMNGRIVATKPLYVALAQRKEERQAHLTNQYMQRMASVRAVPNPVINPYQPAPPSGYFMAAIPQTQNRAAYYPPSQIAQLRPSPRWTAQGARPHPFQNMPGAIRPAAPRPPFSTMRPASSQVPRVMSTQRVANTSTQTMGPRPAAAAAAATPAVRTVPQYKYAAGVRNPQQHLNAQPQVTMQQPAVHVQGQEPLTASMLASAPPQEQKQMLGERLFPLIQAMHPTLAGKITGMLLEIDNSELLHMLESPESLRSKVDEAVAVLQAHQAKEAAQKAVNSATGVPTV
Test [5] addresses T5, Polyadenylate-binding protein 1. As to the kind of experiment: MLLE domain peptide-binding blockers, IC50 – biochemical, fluorescence polarization, FITC-PAM2 peptide, dose response (AID 602259). It counts as functional. To be noted: read-out: IC50_Mean.
Another test deals with T6, Protein skinhead-1 (Caenorhabditis elegans, UniProt P34707).
T6 sequence (P34707 whole entry): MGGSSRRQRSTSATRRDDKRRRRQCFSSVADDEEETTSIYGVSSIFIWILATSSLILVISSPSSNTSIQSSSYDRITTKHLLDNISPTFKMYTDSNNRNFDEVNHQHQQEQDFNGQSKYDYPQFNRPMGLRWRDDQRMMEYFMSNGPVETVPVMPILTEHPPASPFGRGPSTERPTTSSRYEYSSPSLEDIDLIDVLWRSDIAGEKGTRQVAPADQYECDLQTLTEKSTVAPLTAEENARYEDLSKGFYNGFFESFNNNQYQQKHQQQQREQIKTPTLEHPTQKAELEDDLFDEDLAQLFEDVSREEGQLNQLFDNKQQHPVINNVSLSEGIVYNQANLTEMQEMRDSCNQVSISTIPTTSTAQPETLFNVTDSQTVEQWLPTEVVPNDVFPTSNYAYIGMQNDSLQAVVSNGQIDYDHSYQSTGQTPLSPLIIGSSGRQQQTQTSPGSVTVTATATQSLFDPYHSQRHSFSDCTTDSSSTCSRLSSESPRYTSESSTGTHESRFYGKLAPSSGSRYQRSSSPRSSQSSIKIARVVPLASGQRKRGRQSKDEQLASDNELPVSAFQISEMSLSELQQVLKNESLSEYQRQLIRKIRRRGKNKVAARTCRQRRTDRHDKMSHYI
It counts as functional.

Test [6] deals with T7, Endoribonuclease toxin MazF (Escherichia coli K-12, UniProt P0AE70).
T7 sequence (P0AE70 whole entry): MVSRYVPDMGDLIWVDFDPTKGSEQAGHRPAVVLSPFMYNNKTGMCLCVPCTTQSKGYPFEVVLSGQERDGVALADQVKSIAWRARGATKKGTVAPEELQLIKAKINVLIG
As to the kind of experiment: activation of MazEF endoribonuclease cleavage – biochemical, fluorescence, single-stranded RNA substrate, uHTS hits, dose response (AID 588481). It counts as functional.

For test [7], the target named is T7, Endoribonuclease toxin MazF. The test can be described thus: substrate-only fluorescence increase artefacts – biochemical, single-stranded RNase substrate, counter-screen for MazEF activator project, dose response (AID 588502). It counts as functional.
Test [8] is described as follows: Luminescence Cell-Based Dose Confirmation HTS to Identify Activators of 5'UTR Stem-Loop Driven Alpha-Synuclein mRNA Translation in H4 Neuroglioblastoma Cells. [Related pubchem assays: 1829 (Project Summary), 1814 (Primary HTS)]. It counts as functional.
Test [9] is described as follows: Luminescence Cell-Based Dose Response HTS to Identify Activators of Luciferase Translation or Activity in H4 […] Cells. [Related pubchem assays: 1829 (Project Summary), 1814 (Primary HTS)]. It counts as functional.
For test [10], the system named is Streptococcus sp. 'group A'. As to the kind of experiment: Streptococcus pyogenes SK(-)GAS viability under kanamycin – luminescence, BacTiterGlo, confirmation, counter-screen for streptokinase expression inhibitor project, dose response (AID 1900). It counts as functional, organism-based.
The subject of another test is H4. The test can be described thus: Luminescence Cell-Based Dose Response HTS to Identify Activators of 5'UTR Stem-Loop Driven Prion Protein mRNA Translation in H4 Neuroglioblastoma Cells. [Related pubchem assays: 1829 (Project Summary), 1814 (Primary HTS)]. It counts as functional. To be noted: Homo sapiens.
The target in a further test is T8, Streptokinase A (Streptococcus pyogenes serotype M1, UniProt P10520).
T8 sequence (P10520 whole entry): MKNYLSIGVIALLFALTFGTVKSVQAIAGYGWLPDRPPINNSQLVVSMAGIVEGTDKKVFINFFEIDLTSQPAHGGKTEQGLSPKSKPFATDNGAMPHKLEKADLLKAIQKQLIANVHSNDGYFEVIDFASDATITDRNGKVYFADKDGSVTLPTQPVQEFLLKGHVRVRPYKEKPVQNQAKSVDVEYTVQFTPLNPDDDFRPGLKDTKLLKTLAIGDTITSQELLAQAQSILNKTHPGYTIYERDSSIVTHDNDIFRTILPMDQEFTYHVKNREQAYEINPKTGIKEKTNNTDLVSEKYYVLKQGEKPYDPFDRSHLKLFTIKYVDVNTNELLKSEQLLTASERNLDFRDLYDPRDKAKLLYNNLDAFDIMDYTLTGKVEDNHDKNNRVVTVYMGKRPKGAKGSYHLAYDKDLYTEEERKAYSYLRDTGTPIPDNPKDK
The test can be described thus: viability-normalized secreted streptokinase activity reduction – plasminogen activation absorbance, OD405, dose response (AID 1914).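 Also: secreted streptokinase activity via plasminogen activation per viability signal from cell pellet.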 It counts as functional, Streptococcus pyogenes M1 GAS.

A further test deals with Streptococcus. The test can be described thus: GAS UMAA2166 growth inhibition – luminescence, BacTiterGlo, counter-screen for streptokinase expression inhibitor project, dose response (AID 1915).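 Also: potency for reduction of bacterial viability or growth.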 It counts as functional, organism-based.
The target in another test is Cytochrome P450 2C9 (Homo sapiens, UniProt P11712).
Sequence of Cytochrome P450 2C9 (P11712 whole entry): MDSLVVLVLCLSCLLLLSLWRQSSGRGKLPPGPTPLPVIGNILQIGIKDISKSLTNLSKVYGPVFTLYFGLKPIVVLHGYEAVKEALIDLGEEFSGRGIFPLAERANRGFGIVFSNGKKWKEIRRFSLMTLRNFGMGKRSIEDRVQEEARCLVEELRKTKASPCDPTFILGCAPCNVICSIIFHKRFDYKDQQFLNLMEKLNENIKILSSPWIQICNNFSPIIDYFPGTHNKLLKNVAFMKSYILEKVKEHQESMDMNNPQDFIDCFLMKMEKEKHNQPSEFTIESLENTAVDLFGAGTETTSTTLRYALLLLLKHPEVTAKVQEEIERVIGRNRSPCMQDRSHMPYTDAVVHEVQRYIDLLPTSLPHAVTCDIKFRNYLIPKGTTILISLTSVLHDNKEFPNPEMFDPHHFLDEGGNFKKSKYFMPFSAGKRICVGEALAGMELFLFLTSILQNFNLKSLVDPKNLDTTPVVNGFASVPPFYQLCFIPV
Another test deals with P388/ADR. As to the kind of experiment: cells. It counts as functional. To be noted: Mus musculus.
The subject of another test is SN12K1. As to the kind of experiment: cells. It counts as functional. Particulars: Homo sapiens.
In a further test the test system is P388. The test can be described thus: cells. It counts as functional. Particulars: Mus musculus.

The source made the active and inactive calls. A value given as a limit tells only on which side of the number the result lay.

The results in this text go back to ChEMBL document CHEMBL1201862, “PubChem BioAssay data set” (2004).

For `O=C(c1ccc(F)cc1)n1c(=S)nc2ccccn21`, the IC50 was 52.2 µM (active) at Caspase-3; 18.1 µM (active) in test [1]; 60.4 µM (active) in test [2]; 86.1 µM (active) in [3]; > 66 µM (inactive) in [4]; > 66 µM (inactive) in test [5].
Turning to `CCCOc1ccc(-c2nnc(-c3ccco3)o2)cc1`, the IC50 is 17.4 µM (active) on Caspase-3; 11.6 µM (active) in [1]; 22.4 µM (active) in test [2]; 25.8 µM (active) in [3]; 64 µM (inactive) on Protein skinhead-1.
For `CCN(CCNc1ccc([N+](=O)[O-])c2cccnc12)S(=O)(=O)c1ccccc1`, the EC50 in test [6] and in test [7] was > 99 µM (inactive) throughout.
On to `CCOC(=O)c1sc(NC(=O)c2ccc3nc[nH]c3c2)nc1C`, for which the IC50 was 7.1 µM (active) on Caspase-3, 2.47 µM (active) in [1], 5.17 µM (active) in test [2] and 3.4 µM (active) in [3].
With `COc1ccc(CNC(=O)c2cc3c(=O)n4ccccc4nc3n(Cc3cccnc3)c2=N)cc1`, the EC50 in test [6] was 55.4 µM (inactive); in test [7], 47.3 µM (inactive).
Turning to `O=C1/C(=C/Nc2ccc(O)cc2)c2ccccc2C(=O)N1Cc1ccccc1`, the EC50 in [8] was 17.7 µM (active); in test [9], 39.6 µM (active); in [10], 6.51 µM (active); in the test with H4, 33 µM (active); on Streptokinase A it was 18.6 µM (active); with Streptococcus, 14.6 µM (active). In addition, the values for the EC50 in [6] and in [7] were > 99 µM (inactive) and 44.3 µM (inactive), respectively.
With `Cc1ccc(OCC(=O)Nc2ccc(Cl)cc2)c(-n2nc3ccccc3n2)c1`, the EC50 in [6] and in test [7] was > 99 µM (inactive) throughout. The AC50 at Cytochrome P450 2C9 was 2 µM (inconclusive).
Turning to `COCCCn1c(=O)/c(=C/c2ccccc2OC(F)F)s/c1=C(\C#N)C(=O)NCCOC`, the EC50 in test [6] and in test [7] was > 99 µM (inactive) in each case.
On to `CSc1nc2c(ncn2C2OCC(O)C(O)C2O)c(=O)[nH]1` (stereo not drawn), for which the GI50 in the test with P388/ADR, in the test on SN12K1 and with P388 was > 100 µM (inactive) each time.
For the molecule `Cc1ccc2[nH]c3c(C)c4ccncc4c(C)c3c2c1`, the GI50 with P388/ADR was 0.933 µM (active); with SN12K1, 0.927 µM (active); with P388, 0.394 µM (active).
